Measurements as given in US20080108545A1, “Peptide Nucleic Acid Conjugates and Uses Thereof” (UNIVERSITY OF OTAGO, priority 2003, published 2008).

How the values were obtained:
PAX2 mRNA = experiment: Down regulation of PAX2 protein expression (western blot) in P388 cells; format: cell-based, mouse; settings: 1 μM; for PAX2 protein expression: over 4 days
Description: Rabbit anti-PAX2 polyclonal antibody (Zymed) diluted 1:1000 in TBS, 0.1% fat free milk powder, 0.1% Tween-20 was used for PAX-2 detection following overnight incubation with the membrane. After 3×10 min washes in TBS, 0.1% Tween-20, horseradish peroxidase conjugated goat antirabbit IgG (1:10,000, Biorad) was used as a secondary antibody. To detect biotin, horse radish peroxidase conjugated extravidin (1:3,000, Sigma) was used. In both cases secondary antibody binding was carried out for 1 h at room temperature, followed by 3×10 min washes in TBS and visualized by chemiluminescence using a Pierce Super Signal R chemiluminescence substrate with Kodak X-OMAT™ AR imaging film.

[1] = test system: P388 leukemia cancer cells; experiment: General cell proliferation of treated P388 cells; format: cell-based, mouse; settings: 1 μM
From the text: To investigate the biological effects of the anti-PAX2 TPP-fluPNA conjugate we used a mouse cell line that highly expresses the PAX2 protein. […] This is most likely due to the absence of the cation that effectively delivers the PNA to the cells.

P388 cells = experiment: Gel/blot detection of PNA and phosphonium in fractions of conjugate-treated P388 cells; format: cell-based, mouse; settings: after treatment with TPP-PNA, FIG. 5D
Description: Cells (143B, human fibroblasts, COS-7, P388 and IMCD) were grown at 37° C. and 5% CO2 in humidified atmosphere in Dulbecco's modified Eagle's medium supplemented with 10% inactivated foetal calf serum (FCS). All cell culture media contained 100 units.mL^−1 penicillin, and 100 μg.mL^−1 streptomycin. Protein was quantitated by the bicinchoninic acid assay. Cells were incubated with 1 μM TPP-PNA or with PNA alone for the indicated times. The disulfide bond in the TPP-PNA is stable in the oxidizing extracellular environment but is labile in the reducing cytoplasmic mulieu (FIG. 1).
For conjugate detection, 143B cell lysates treated with TPP-PNA conjugates (˜5 nmol) in 20 μL loading buffer (50 mM Tris, 4% SDS, 12% glycerol, 2% 2-mercaptoethanol, 0.01% coomassie brilliant blue) were separated on 18.5% Tris-tricine gels using a BioRad Mini Protean system (Schagger and von Jagow, 1987). For PAX-2 detection, P388 and IMCD cell lysates in loading buffer were resolved on 12.5% Tris-glycine gels (Laemmli, 1970). […]
The P388 cells were treated as described before, the lysates were resolved on Tris-tricine gels and the TPP-fluPNA conjugates were detected using a GelDoc fluorescence imager. […]

human fibroblasts = experiment: Confocal immunofluorescent microscopy of fixed fibroblasts; format: cell-based; settings: 1 μM, 30 min, 1 h and up to 4 h
Description: For immunocytochemistry trypsinised human fibroblasts (5,000 cells per well) were plated onto 13 mm diameter glass coverslips in 24 well plates overnight. Following incubation for 4 h at 37° C. with 1 μM TPP-PNA conjugates, cells were fixed with 4% paraformaldehyde (PFH) in TBS for 30 min, washed with TBS and incubated with 10% FCS/0.1% Triton X-100/TBS (TBST) for 10 min. The IgG fraction of anti-triphenylphosphonium serum (1:500) was diluted in TBST, then added and incubated overnight at 4° C. The IgG fraction of preimmune serum was used as a control. After washing with TBS (3×5 min) the cells were incubated with anti-rabbit IgG Oregon green fluorophore-conjugated secondary antibody diluted 1:100 in TBS for 15 min in the dark. The cells were washed in TBS and incubated for another 15 min with streptavidin conjugated CY3 (1:200, Molecular Probes) in the dark, to detect biotin. Cells were then washed in TBS, mounted in DABCO/PVA medium (15 g PVA, 15 g 1,4-diazabicyclo (2,2,2) octane in 30% glucerol in 0.1 M Tris, pH 8.5) and mounted onto coverslips. […]
The localisation of TPP-PNA conjugate within human fibroblasts was also determined by fixing cells that had been incubated with TPP-PNA, PNA or without any additions for up to 4 h and visualising the localisation of the PNA by confocal immunofluorescent microscopy (FIG. 6). […]

HNF4α pre-mRNA = experiment: RT-PCR of HNF4α mRNA, exon 9 skipping in BNL-CL2 liver cells; format: cell-based, mouse
Description: A mouse liver cell line, BNL-CL2, was grown at 37° C. and 5% CO2 in humidified atmosphere in Dulbecco's Modified Eagle's Medium supplemented with 10% inactivated FBS, 100 units.mL−1 penicillin, and 100 μg.mL−1 streptomycin, but without sodium pyruvate. To culture the cells with PNA, cells were seeded into a 96-well-plate, followed 16 h later by addition of 1 μM TPP-fluPNA alone or in an aqueous solution of 150 μM Chloroquine, and cultured for another 70 h. Images were acquired using a Zeiss inverted confocal microscope with 488 nm excitation wavelength light for tracking the TPP-fluPNA. Mitochondria specific dye MitoTracker Red CMXRos was added into cultured medium 2 h before taking confocal images using 578 nm excitation wavelength light.
Total RNA was extracted from cells cultured with either fluoresceinated or non-fluoresceinated TPP-PNA, or with PNA dissolved in 150 μM Chloroquine, or with medium controls for 24 h or 72 h. The concentration of extracted RNA was quantified using a NanoDrop spectrophotometer, and 1 μg of total RNA was reverse transcribed into cDNA using Invitrogen SuperScript III and random primers. […]. […]

TPP-fluPNA(PAX-2): Fluoroscein-XX-TTCACACCCCCGTGCC-X-Cys-CO2H PNA targeting PAX2 mRNA, disulfide linked to thiobutyltriphenylphosphonium (all peptide nucleic acid (PNA); 5' fluorescein via linkers, 3' linker-Cys disulfide-linked to triphenylphosphonium)
Duration of inhibition of PAX2 expression (PAX2 mRNA): 4 days
PAX2 protein expression (PAX2 mRNA): significant inhibition of PAX2 expression
General cell proliferation [1]: did not affect general cell proliferation

Fluoroscein-XX-TTCACACCCCCGTGCC-X-Cys-CO2H (5' fluorescein via linkers, 3' linker and cysteine, further chemistry not given here) [unmodified anti-PAX2 PNA, unconjugated fluoroscein-tagged PNA oligomer targeting human and mouse PAX2 mRNA, reference compound]
PAX2 protein expression (PAX2 mRNA): did not decrease PAX2 protein levels

thiobutyltriphenylphosphonium [TBTP]
Localisation of phosphonium cation, anti-phosphonium serum (P388 cells): detected in the mitochondrial fractions

Biotin-XX-GTTGGCTCTCT-X-Cys-CO2H [bioPNA]
Uptake of unconjugated PNA (human fibroblasts): uptake (red) only after 4 h

TPP-lysPNA(HNF4-α): Lys-GTCCCAGACGGT-Cys-COOH PNA targeting mouse HNF4α mRNA, conjugated with TBTP
Exon 9-skipped splice variant RT-PCR product (HNF4α pre-mRNA; 1 μM in cell culture media for 70 h, no transfection reagent): A 352 bp RT-PCR product was observed
Exon 9-skipped splice variant RT-PCR product (HNF4α pre-mRNA; transfected using chloroquine): A 352 bp RT-PCR product was observed
